Tests used:
[1] = biological target: T1, 5-hydroxytryptamine receptor 1A (Homo sapiens, UniProt P08908)
T1 sequence (P08908 whole entry): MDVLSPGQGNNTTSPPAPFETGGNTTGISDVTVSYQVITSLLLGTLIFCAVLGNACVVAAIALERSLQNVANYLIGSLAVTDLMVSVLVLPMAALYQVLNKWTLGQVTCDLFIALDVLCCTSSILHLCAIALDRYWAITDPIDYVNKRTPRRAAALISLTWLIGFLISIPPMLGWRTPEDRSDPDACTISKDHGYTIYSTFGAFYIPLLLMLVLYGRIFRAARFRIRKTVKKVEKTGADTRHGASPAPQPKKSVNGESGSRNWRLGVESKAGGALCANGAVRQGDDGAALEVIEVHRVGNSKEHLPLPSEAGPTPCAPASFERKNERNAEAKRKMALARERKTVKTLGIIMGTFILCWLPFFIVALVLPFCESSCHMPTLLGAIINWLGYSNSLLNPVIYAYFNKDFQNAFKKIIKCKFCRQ
Description: Binding affinity to human cloned 5HT1A receptor

[2] = biological target: T2, 5-hydroxytryptamine receptor 2C (Homo sapiens, UniProt P28335)
T2 sequence (P28335 whole entry): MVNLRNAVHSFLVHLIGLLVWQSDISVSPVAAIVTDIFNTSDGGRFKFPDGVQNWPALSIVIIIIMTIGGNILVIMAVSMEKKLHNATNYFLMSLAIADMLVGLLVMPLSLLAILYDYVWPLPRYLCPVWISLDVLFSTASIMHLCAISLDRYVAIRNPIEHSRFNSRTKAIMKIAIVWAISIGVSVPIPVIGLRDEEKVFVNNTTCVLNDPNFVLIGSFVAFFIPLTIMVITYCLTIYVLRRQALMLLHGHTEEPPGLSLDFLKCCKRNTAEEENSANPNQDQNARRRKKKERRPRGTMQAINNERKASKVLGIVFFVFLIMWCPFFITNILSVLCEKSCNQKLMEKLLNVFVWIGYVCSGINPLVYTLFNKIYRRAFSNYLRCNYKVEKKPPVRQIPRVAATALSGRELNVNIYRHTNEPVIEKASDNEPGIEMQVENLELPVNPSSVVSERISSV
Description: Binding affinity to human cloned 5HT2C receptor

[3] = biological target: 5-hydroxytryptamine receptor 2A (Homo sapiens, UniProt P28223)
Description: Binding affinity to human cloned 5HT2A receptor

D(3) dopamine receptor = D(3) dopamine receptor (Homo sapiens, UniProt P35462)
Description: Binding affinity to human cloned dopamine D3 receptor

D(4) dopamine receptor = biological target: T3, D(4) dopamine receptor (Homo sapiens, UniProt P21917)
T3 sequence (P21917 whole entry): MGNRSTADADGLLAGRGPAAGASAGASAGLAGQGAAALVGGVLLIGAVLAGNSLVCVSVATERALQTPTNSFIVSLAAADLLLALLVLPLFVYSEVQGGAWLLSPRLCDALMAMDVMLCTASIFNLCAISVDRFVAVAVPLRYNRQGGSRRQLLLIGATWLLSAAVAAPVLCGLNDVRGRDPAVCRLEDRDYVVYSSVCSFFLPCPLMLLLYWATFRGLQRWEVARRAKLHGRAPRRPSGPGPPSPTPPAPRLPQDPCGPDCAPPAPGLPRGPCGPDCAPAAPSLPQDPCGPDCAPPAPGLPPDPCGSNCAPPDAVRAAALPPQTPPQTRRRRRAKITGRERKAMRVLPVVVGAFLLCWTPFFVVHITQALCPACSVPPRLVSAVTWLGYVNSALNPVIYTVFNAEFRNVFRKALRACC
Description: Binding affinity to human cloned dopamine D4 receptor

[4] = biological target: T4, Muscarinic acetylcholine receptor M1 (Homo sapiens, UniProt P11229)
T4 sequence (P11229 whole entry): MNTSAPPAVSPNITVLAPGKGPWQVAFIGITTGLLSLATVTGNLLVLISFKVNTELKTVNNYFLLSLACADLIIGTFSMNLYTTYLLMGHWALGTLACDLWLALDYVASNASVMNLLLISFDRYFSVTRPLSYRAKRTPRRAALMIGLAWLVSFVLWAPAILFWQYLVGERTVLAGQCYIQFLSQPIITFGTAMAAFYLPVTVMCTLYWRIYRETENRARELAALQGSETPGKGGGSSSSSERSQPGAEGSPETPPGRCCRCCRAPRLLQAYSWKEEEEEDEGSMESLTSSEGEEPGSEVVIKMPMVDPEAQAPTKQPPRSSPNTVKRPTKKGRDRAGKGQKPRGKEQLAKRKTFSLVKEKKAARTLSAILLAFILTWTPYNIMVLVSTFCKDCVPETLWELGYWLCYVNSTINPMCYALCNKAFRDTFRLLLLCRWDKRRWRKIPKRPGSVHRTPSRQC
Description: Binding affinity to human cloned muscarinic M1 receptor

[5] = biological target: 5-hydroxytryptamine receptor 6 (Homo sapiens, UniProt P50406)
Description: Binding affinity to human cloned 5HT6 receptor

Mus musculus = species: Mus musculus; experiment: animal or person; assay type: functional; conditions: Swiss Webster, 0.5 h
Description: Blockade of apomorphine-induced climbing stereotypy in Swiss Webster mouse after 30 mins

[6] = biological target: Sodium-dependent dopamine transporter (Homo sapiens, UniProt Q01959)
Description: Binding affinity to human DAT

[7] = biological target: 5-hydroxytryptamine receptor 2B (Homo sapiens, UniProt P41595)
Sequence of 5-hydroxytryptamine receptor 2B (P41595 whole entry): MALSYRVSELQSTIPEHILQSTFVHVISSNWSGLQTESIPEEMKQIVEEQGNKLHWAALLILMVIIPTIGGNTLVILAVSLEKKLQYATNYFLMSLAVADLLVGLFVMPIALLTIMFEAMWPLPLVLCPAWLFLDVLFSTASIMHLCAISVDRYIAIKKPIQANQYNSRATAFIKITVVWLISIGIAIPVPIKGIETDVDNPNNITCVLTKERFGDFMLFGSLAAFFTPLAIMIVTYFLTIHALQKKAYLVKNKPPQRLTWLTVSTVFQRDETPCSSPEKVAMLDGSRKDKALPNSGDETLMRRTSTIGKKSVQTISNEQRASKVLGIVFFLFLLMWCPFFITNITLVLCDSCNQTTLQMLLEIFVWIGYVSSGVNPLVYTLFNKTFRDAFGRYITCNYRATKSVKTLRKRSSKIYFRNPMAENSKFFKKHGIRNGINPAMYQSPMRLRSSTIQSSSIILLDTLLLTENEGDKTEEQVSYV
Description: Binding affinity to human cloned 5HT2B receptor

Sequence of D(3) dopamine receptor (P35462 whole entry): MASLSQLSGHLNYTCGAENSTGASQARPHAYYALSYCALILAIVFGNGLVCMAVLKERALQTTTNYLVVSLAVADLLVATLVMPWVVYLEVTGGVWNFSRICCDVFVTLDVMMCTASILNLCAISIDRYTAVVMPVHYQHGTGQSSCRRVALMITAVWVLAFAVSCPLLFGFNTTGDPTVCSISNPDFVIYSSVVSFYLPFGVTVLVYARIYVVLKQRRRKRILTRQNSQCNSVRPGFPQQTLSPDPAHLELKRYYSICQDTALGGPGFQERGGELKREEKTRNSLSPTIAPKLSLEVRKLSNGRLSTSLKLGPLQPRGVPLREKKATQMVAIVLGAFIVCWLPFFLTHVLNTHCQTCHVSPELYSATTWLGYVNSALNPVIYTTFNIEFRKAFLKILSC
Sequence of 5-hydroxytryptamine receptor 2A (P28223 whole entry): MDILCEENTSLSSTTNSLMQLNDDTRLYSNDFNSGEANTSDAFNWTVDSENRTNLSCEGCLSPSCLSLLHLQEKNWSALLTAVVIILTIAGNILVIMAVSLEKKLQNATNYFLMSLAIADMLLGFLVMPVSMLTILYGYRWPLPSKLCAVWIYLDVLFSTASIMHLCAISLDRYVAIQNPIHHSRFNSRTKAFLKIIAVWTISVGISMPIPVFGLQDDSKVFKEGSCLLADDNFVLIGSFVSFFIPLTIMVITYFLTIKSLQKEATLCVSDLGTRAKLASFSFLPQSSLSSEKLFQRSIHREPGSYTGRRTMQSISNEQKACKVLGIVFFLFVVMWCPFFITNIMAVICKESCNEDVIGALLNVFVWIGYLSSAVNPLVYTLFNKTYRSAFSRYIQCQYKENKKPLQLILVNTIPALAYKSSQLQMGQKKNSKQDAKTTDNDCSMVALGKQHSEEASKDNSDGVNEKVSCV
Sequence of 5-hydroxytryptamine receptor 6 (P50406 whole entry): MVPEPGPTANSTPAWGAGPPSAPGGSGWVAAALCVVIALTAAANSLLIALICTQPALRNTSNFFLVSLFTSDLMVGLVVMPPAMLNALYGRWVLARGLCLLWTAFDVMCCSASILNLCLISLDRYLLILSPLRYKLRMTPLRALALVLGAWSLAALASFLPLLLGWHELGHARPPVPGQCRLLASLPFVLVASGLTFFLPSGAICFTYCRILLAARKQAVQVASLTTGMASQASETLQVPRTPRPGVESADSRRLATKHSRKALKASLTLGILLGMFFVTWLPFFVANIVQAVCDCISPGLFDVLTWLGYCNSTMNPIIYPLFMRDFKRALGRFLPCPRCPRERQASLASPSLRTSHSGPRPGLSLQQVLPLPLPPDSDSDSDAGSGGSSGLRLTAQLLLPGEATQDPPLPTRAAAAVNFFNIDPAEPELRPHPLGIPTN
Sequence of Sodium-dependent dopamine transporter (Q01959 whole entry): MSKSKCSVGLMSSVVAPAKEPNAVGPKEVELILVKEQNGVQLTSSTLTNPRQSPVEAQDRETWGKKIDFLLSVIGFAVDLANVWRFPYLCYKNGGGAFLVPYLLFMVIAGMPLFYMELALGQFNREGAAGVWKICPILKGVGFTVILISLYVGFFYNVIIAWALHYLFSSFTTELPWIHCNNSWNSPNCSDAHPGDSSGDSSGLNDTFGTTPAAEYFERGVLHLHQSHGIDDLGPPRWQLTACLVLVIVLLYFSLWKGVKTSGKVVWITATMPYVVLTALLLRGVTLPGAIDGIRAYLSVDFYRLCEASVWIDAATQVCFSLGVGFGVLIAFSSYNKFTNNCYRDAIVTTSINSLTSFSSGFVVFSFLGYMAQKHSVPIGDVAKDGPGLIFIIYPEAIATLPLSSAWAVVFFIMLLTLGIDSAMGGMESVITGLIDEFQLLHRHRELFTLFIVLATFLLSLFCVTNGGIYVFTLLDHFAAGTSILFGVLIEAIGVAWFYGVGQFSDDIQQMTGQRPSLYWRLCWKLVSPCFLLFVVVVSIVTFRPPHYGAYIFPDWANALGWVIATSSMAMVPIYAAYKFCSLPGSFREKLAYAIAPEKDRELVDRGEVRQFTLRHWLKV

With `O=C(CCCN1C2CCC1CC(O)(c1ccccc1)C2)c1ccc(F)cc1` (stereo not given) the Ki [1] was 37.6 nM, the Ki [2] was > 10000 nM and the Ki [3] was 12.3 nM.

For `O=C(CCCN1CC2CCC(C1)N2c1ccccc1)c1ccc(F)cc1`, the Ki (D(3) dopamine receptor) was 600 nM and the Ki (D(4) dopamine receptor) was 2100 nM.

For `O=C(CCCN1CCN(c2ccc(Cl)cc2)CC1)c1ccc(F)cc1`, the Ki [1] was 90.9 nM and the Ki [2] was 3550 nM.

In the case of `O=C(CCCN1CC2CC1CN2c1ccc(Cl)cc1)c1ccc(F)cc1` (stereo not given), the Ki (D(3) dopamine receptor) is reported as 220 nM and the Ki (D(4) dopamine receptor) is reported as 520 nM.

`O=C1Cc2cc(CCN3CCN(c4nsc5ccccc45)CC3)c(Cl)cc2N1` [ZIPRASIDONE] showed a Ki [1] of 2.5 nM, a Ki [4] of 5100 nM and a Ki [5] of 76 nM.

Work on `O=C(CCCN1CCCN(c2ccc(Cl)cc2)CC1)c1ccc(F)cc1` yielded an ED50 (Mus musculus) of 35.8 µmol/kg, a Ki [6] of 1150 nM and a Ki [5] of 296 nM. It also gave a Ki [7] of 495 nM.

For `O=C(CCCN1CCC(O)(c2ccc(Cl)cc2)C1)c1ccc(F)cc1` (single isomer, unassigned; (+)), the Ki [1] was 772 nM.

Compound `O=C(CCCN1C2CCC1CC(c1ccccc1)C2)c1ccc(F)cc1` (stereo not given) has a Ki [1] of 414 nM, a Ki [2] of 1060 nM and a Ki [3] of 106 nM.

Reference: ChEMBL document CHEMBL1155799 (Bioorg Med Chem, 2008)
